Source: paper PMC6941952, “A homogeneous bioluminescent immunoassay to probe cellular signaling pathway regulation” (Communications Biology, 2020)
“And” between values parts separate entries of the source, which are not always exact repeats. Equal entries are not always repeated.

System: phospho-IκBα (Ser32)
Assay: NanoBiT cell-based immunoassay, phosphorylated IκBα in MCF-7 cells
Parameters: species or system human
Protocol: Prior to NanoBiT Cell-Based Immunoassay, 50,000 cells were seeded in 160 µl of complete growth media per well of a 96-well plate and incubated overnight. The cells were checked under microscope and it was determined that 50,000 cells per well in 96-well plate is under 90% confluency for all cells tested. If necessary, the cell culture media were replaced with serum-free media after the cells were stably adherent on the plate and incubated overnight. To treat cells with activators or inhibitors, medium was changed to 30 µl of medium containing inhibitors. If activation of a specific pathway is needed, the cells were stimulated with 10 µl of medium containing activators. To lyse the cells, 10 µl of lysis buffer containing 0.1% digitonin diluted in 1X immunoassay buffer with protease and phosphatase inhibitors was added and the plates were mixed vigorously for 20 min. Then, 50 µl of an antibody mix containing two primary antibodies against the target protein and NanoBiT detecting antibodies (0.3 µl each per well), diluted in 1X immunoassay buffer was added to the lysates. The plates were incubated at 23 °C for 90 min, followed by the addition of 25 µl of Nano-Glo® reagent consisting of Nano-Glo® Luciferase Assay Substrate mixed with 1X immunoassay buffer. Luminescence was measured using a plate-reading luminometer.
In all, 50,000 MCF-7 cells were seeded in 160 µl complete growth medium per well of a 96-well plate and incubated overnight. Half of the cells were treated with 50 ng per ml TNFα and half with vehicle. Cells were lysed as described above and a mixture of NanoBiT secondary antibodies with primary antibodies at the matrix concentrations described in Fig. 2a were added. After 90 min incubation, the Nano-Glo® reagent was added to the reactions as described above and luminescence was measured using a plate-reading luminometer.
Single dose or dose response inhibitor treatments were performed prior to activation of the pathways as follows. For IκBα, the cells were treated in 30 µl medium with IKK16 or MG132 for 60 min before the addition of 10 µl of DMEM containing appropriate concentration of TNFα. To measure phosphorylation of AKT or STAT3, the corresponding NanoBiT immunoassays were developed with MCF-7 or A431 cells, respectively, according the same scheme used to develop the IκBα assay using the primary antibodies for AKT and STAT3 described in the reagents section. For the AKT assay, MCF-7 cells were incubated overnight in phenol-red free DMEM medium (Gibco #21063-029) without serum. Treatment with LY294002 was performed in 30 µl medium and cells were incubated for 60 min before the addition of 1 µM Insulin. To measure STAT3 phosphorylation, A431 cells were incubated overnight in DMEM medium without serum. […] After addition of the stimulators, the cells were incubated for additional times as follows. IκBα phosphorylation and degradation analyses required both time courses and single time points as described in figures. […] The NanoBiT immunoassay protocol was followed as described above.
All 96-well assay plates were read using a GloMax® 96 Microplate Luminometer from Promega. The instrument was set to 0.5 s integration time. In order to obtain net change of signal, the reagent background values (signal from the well containing all reagent except primary antibodies) were subtracted from the sample values. To plot and analyze the data, Microsoft Excel and GraphPad Prism® Software were used. IC50 values were determined by using a nonlinear regression fit to a sigmoidal dose response (variable slope).

Q: Which “P-IkB Raw data” value (Figure 3a and 3b) does the source give for O=C(c1ccc(Nc2nccc(-c3cc4ccccc4s3)n2)cc1)N1CCC(N2CCCC2)CC1 [IKK16] here?
A: 17490 and 17630 and 17730

Q: And the “P-IkB Subtract reagent background” value (Figure 3a and 3b)?
A: 280 and 420 and 520

Q: And the “P-IkB Average” value (Figure 3a and 3b, background subtracted)?
A: 407

Q: And the “TNFα-induced phosphorylation of IκBα on serine 32” value (MCF-7 cells, 10 µM 1 h, TNFα 50 ng per ml 10 min)?
A: suppressed
